Measured values published in the supplement of paper PMC10307832.

How the values were obtained:
Test in all cases: relative viability (nuclei count vs DMSO), 5 days (fraction); higher = more cells survive
[1] = system: NCI-H2085
Outline: (§1)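 Five library-drug doses in √10 steps were combined with a fixed anchor-drug dose, or a single drug was given alone, by pin tool to lung cancer cell lines in 1536-well plates the day after seeding. Nuclei were stained and counted after 5 days. Relative viability is the nuclei count in treated wells over that in vehicle wells, taken as the median of duplicate plates.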

[2] = system: NCI-H2023
Outline: as §1

[3] = system: NCI-H3122
Outline: as §1

[4] = system: NCI-H520
Outline: as §1

[5] = system: EPLC-272H
Outline: as §1

[6] = system: NCI-H1650
Outline: as §1

[7] = system: COR-L23
Outline: as §1

[8] = system: HCC-44
Outline: as §1

[9] = system: NCI-H2170
Outline: as §1

[10] = system: EKVX
Outline: as §1

[11] = system: NCI-H1734
Outline: as §1

[12] = system: ABC-1
Outline: as §1

[13] = system: NCI-H2347
Outline: as §1

[14] = system: RERF-LC-KJ
Outline: as §1

[15] = system: 201T
Outline: as §1

[16] = system: PC-14
Outline: as §1

[17] = system: NCI-H2405
Outline: as §1

[18] = system: NCI-H1993
Outline: as §1

[19] = system: NCI-H1563
Outline: as §1

[20] = system: NCI-H647
Outline: as §1

[21] = system: LOU-NH91
Outline: as §1

[22] = system: NCI-H1793
Outline: as §1

C[C@@H]1CN(CC(=O)Nc2ccc3c(c2)Cc2cccc(-c4cc(=O)cc(N5CCOCC5)o4)c2S3)C[C@H](C)O1 + CS(=O)(=O)CCNCc1ccc(-c2ccc3ncnc(Nc4ccc(OCc5cccc(F)c5)c(Cl)c4)c3c2)o1 [Lapatinib] (partner 2 µM)
relative viability ([1]; first compound 0.04 µM): 0.402
relative viability ([1]; first compound 0.1265 µM): 0.742
relative viability ([1]; first compound 0.4 µM): 0.624
relative viability ([1]; first compound 4 µM): 0.58
relative viability ([2]; first compound 0.04 µM): 0.176
relative viability ([2]; first compound 0.1265 µM): 0.793
relative viability ([2]; first compound 0.4 µM): 0.536
relative viability ([2]; first compound 4 µM): 0.719
relative viability ([3]; first compound 0.04 µM): 1.05
relative viability ([3]; first compound 0.1265 µM): 1.01
relative viability ([3]; first compound 0.4 µM): 1.07
relative viability ([3]; first compound 4 µM): 0.988
relative viability ([4]; first compound 0.04 µM): 0.983
relative viability ([4]; first compound 0.1265 µM): 0.701
relative viability ([4]; first compound 0.4 µM): 0.682
relative viability ([4]; first compound 4 µM): 0.711
relative viability ([5]; first compound 0.04 µM): 0.837
relative viability ([5]; first compound 0.1265 µM): 1
relative viability ([5]; first compound 0.4 µM): 1.01
relative viability ([5]; first compound 4 µM): 0.783
relative viability ([6]; first compound 0.04 µM): 0.287
relative viability ([6]; first compound 0.1265 µM): 0.812
relative viability ([6]; first compound 0.4 µM): 0.719
relative viability ([6]; first compound 4 µM): 0.588
relative viability ([7]; first compound 0.04 µM): 0.893
relative viability ([7]; first compound 0.1265 µM): 1.08
relative viability ([7]; first compound 0.4 µM): 1.12
relative viability ([7]; first compound 4 µM): 1.05
relative viability ([8]; first compound 0.04 µM): 0.94
relative viability ([8]; first compound 0.1265 µM): 1.02
relative viability ([8]; first compound 0.4 µM): 1.07
relative viability ([8]; first compound 4 µM): 0.922
relative viability ([9]; first compound 0.1265 µM): 0.251
relative viability ([9]; first compound 0.4 µM): 0.277
relative viability ([9]; first compound 4 µM): 0.277
relative viability ([10]; first compound 0.04 µM): 0.271
relative viability ([10]; first compound 0.1265 µM): 0.179
relative viability ([10]; first compound 0.4 µM): 0.224
relative viability ([10]; first compound 4 µM): 0.211
relative viability ([11]; first compound 0.04 µM): 1.02
relative viability ([11]; first compound 0.1265 µM): 1.17
relative viability ([11]; first compound 0.4 µM): 1.03
relative viability ([11]; first compound 4 µM): 1.23
relative viability ([12]; first compound 0.04 µM): 0.964
relative viability ([12]; first compound 0.1265 µM): 1.06
relative viability ([12]; first compound 0.4 µM): 1.22
relative viability ([12]; first compound 4 µM): 1.21
relative viability ([13]; first compound 0.04 µM): 0.79
relative viability ([13]; first compound 0.1265 µM): 1.04
relative viability ([13]; first compound 0.4 µM): 0.988
relative viability ([13]; first compound 4 µM): 0.875
relative viability ([14]; first compound 0.04 µM): 0.873
relative viability ([14]; first compound 0.1265 µM): 0.877
relative viability ([14]; first compound 0.4 µM): 0.808
relative viability ([14]; first compound 4 µM): 0.799
relative viability ([15]; first compound 0.04 µM): 1.07
relative viability ([15]; first compound 0.1265 µM): 0.976
relative viability ([15]; first compound 0.4 µM): 1.08
relative viability ([15]; first compound 4 µM): 0.988
relative viability ([16]; first compound 0.04 µM): 0.277
relative viability ([16]; first compound 0.1265 µM): 0.298
relative viability ([16]; first compound 0.4 µM): 0.298
relative viability ([16]; first compound 4 µM): 0.316
relative viability ([17]; first compound 0.04 µM): 0.879
relative viability ([17]; first compound 0.1265 µM): 1.11
relative viability ([17]; first compound 0.4 µM): 1.04
relative viability ([17]; first compound 4 µM): 1.07
relative viability ([18]; first compound 0.04 µM): 0.862
relative viability ([18]; first compound 0.1265 µM): 0.86
relative viability ([18]; first compound 0.4 µM): 0.812
relative viability ([18]; first compound 4 µM): 0.833
relative viability ([19]; first compound 0.04 µM): 0.834
relative viability ([19]; first compound 0.1265 µM): 0.883
relative viability ([19]; first compound 0.4 µM): 0.859
relative viability ([19]; first compound 4 µM): 0.702
relative viability ([20]; first compound 0.04 µM): 1.02
relative viability ([20]; first compound 0.1265 µM): 1.07
relative viability ([20]; first compound 0.4 µM): 1.16
relative viability ([20]; first compound 4 µM): 0.638
relative viability ([21]; first compound 0.04 µM): 0.689
relative viability ([21]; first compound 0.1265 µM): 0.792
relative viability ([21]; first compound 0.4 µM): 0.676
relative viability ([21]; first compound 4 µM): 0.733
relative viability ([22]; first compound 0.04 µM): 0.809
relative viability ([22]; first compound 0.1265 µM): 0.743
relative viability ([22]; first compound 0.4 µM): 0.734
relative viability ([22]; first compound 4 µM): 0.649
